This note sets out measurements from patent US20200261576A1, “APOPTOTIC CELL-MEDIATED INDUCTION OF ANTIGEN SPECIFIC REGULATORY T-CELLS FOR THE THERAPY OF AUTOIMMUNE DISEASES IN ANIMALS AND HUMANS” (The United States of America, as represented by the …, priority 2013, published 2020).

For experiment [1], the system named is SJL mice. Briefly: Prevention of EAE in SJL mice (treatment before immunization). The class given is in vivo. As for the experimental part: Antibodies used for in vivo. Anti-CD4 (clone Gk1.5), anti-CD8 antibody (clone 53-6.72), anti-TGFβ antibody (clone ID11) and mouse IgG1 (clone MOPC-21) were purchased from Bio X cell. Anti-CD20 antibody (clone 5D2) was a gift from Genentech. T cell depletion studies in EAE disease models. For EAE prevention studies SJL/J mice were either untreated or treated with CD4− (100 μg/mouse) and CD8− (50 μg/mouse) specific antibody (T cell depletion antibody). Some mice were immediately injected i.p. with pPLP or pOVA (25 μg/mouse) or PBS every other day for 16 days. All mice were immunized with pPLP and CFA (day 0). For EAE treatment studies, SJL mice were treated with CD4- and CD8-specific antibody and 5 μg of pPLP, pOVA or PBS i.p. every other day from day 12 to day 26 following immunization with pPLP (day 0). For EAE prevention studies, SJL mice were treated with CD4- and CD8-specific antibody at day −21, and 25 μg of pPLP, pOVA or PBS i.p. every other day from day −18 to day −2 before immunization with pPLP (day 0). In C57BL/6 mice, same T cell depletion regimen was utilized but pMOG (10 μg mouse) was administered via i.p. In some mice, anti-TGFβ or isotype control antibody (mIgG1) (200 μg/mice each day) were injected i.p. one day after T cell depletion. […] Mice were monitored for clinical score of disease and sacrificed at indicated time points. […]

In experiment [2] the test system is splenocytes. Briefly: Antigen-recall T cell proliferation and cytokine production of splenocytes from SJL EAE mice. The class given is cell-based. Conditions: therapy model; splenocytes restimulated with pPLP. The protocol: Cytokine assays. Splenocytes were cultured at 37° C. in 5% CO2 for 2-3 days with either soluble CD3-specific antibody (anti-CD3) (0.5 μg/ml) or MT (heat-killed M. tuberculosis, H37RA, DIFCO) (50 μg/ml) or peptides (pMOG, pPLP) (0-50 μg/ml as indicated). Cytokines were quantified in culture supernatants by ELISA; TNF-α, IL-6, and IFN-γ (BioLegend) and IL-17 (eBioscience). EAE induction, scoring, analysis and in vitro cell cultures. Peptide-induced EAE was induced in SJL mice and C57BL/6 mice as previously reported^11,20. Individual mice were observed daily and clinical scores were assessed on a 0-5 scale as follows: 0, no abnormality; 1, limp tail or hind limb weakness; 2, limp tail and hind limb weakness; 3, hind limb paralysis; 4, hind limb paralysis and forelimb weakness; and 5, moribund. […] Radioactive incorporation was counted using a flatbed β-counter (Wallac). […]

With “proteolipid protein peptide PLP139-151 (HSLGKWLGHPDKF; listed as Mus musculus)”, the “EAE clinical disease, prevention” value in experiment [1] is on record as “failed to prevent EAE”. Further, in experiment [2], the “pPLP-specific T cell proliferation and inflammatory cytokine production” value is reported as “no reduction”.
